Test results from patent US10781224B2, “Bis(oxymethyl)phosphinic acid and biogenic metal salts thereof as regulators of plant growth and development” (priority 2016, dated 2020).
Several values for one entry are separate records, joined by “and”; a condition that tells them apart may be missing. Equal entries are not always repeated.

Tested on: winter wheat (Vershin variety)
Test: Winter wheat seed treatment with BHMPA salts: germinating power (length and mass of roots and sprouts)
Format: in vivo
Outline: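 Seeds (50 per Petri dish on two layers of filter paper) soaked 1 h in BHMPA or its Ca, Mg, Na, Co, Mn, Cu or Zn salts at 1·10^−6-1·10^−12%, with water controls. Germination energy read on day 4, germination on day 8 (wheat) or day 7 (rice, corn), as % means of four replicates. Germinating power taken as root and sprout length plus wet and dry mass per 100 seedlings.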

[1] = comparative study, 1·10^−9% solution

## O=P([O-])(CO)CO.O=P([O-])(CO)CO.[Zn+2] [Zn-salt, Zinc BHMPA Salt]
1·10^−6% solution
  Length, root: 9.1 cm
  Length, root, + % to control: −6%
  Length, sprout: 6.9 cm
  Length, sprout, + % to control: −4%
  Mass, dry, root: 0.60 g/100 plantlings
  Mass, dry, root, + % to control: 5%
  Mass, dry, sprout: 0.61 g/100 plantlings
  Mass, dry, sprout, + % to control: −4%
  Mass, wet, root: 2.58 g/100 plantlings
  Mass, wet, root, + % to control: 0%
  Mass, wet, sprout: 4.73 g/100 plantlings
  Mass, wet, sprout, + % to control: −1%
1·10^−7% solution
  Length, root: 10.2 cm
  Length, root, + % to control: 5%
  Length, sprout: 7.3 cm
  Length, sprout, + % to control: 1%
  Mass, dry, root: 0.62 g/100 plantlings
  Mass, dry, root, + % to control: 9%
  Mass, dry, sprout: 0.70 g/100 plantlings
  Mass, dry, sprout, + % to control: 9%
  Mass, wet, root: 2.61 g/100 plantlings
  Mass, wet, root, + % to control: 1%
  Mass, wet, sprout: 4.88 g/100 plantlings
  Mass, wet, sprout, + % to control: 2.5%
1·10^−8% solution
  Length, root: 10.3 cm
  Length, root, + % to control: 6%
  Length, sprout: 7.5 cm
  Length, sprout, + % to control: 4%
  Mass, dry, root: 0.64 g/100 plantlings
  Mass, dry, root, + % to control: 12%
  Mass, dry, sprout: 0.77 g/100 plantlings
  Mass, dry, sprout, + % to control: 20%
  Mass, wet, root: 2.77 g/100 plantlings
  Mass, wet, root, + % to control: 7%
  Mass, wet, sprout: 4.98 g/100 plantlings
  Mass, wet, sprout, + % to control: 5%
1·10^−9% solution
  Length, root: 10.9 cm
  Length, root, + % to control: 12%
  Length, sprout: 7.6 cm
  Length, sprout, + % to control: 5.5%
  Mass, dry, root: 0.69 g/100 plantlings
  Mass, dry, root, + % to control: 21%
  Mass, dry, sprout: 0.82 g/100 plantlings
  Mass, dry, sprout, + % to control: 28%
  Mass, wet, root: 3.58 g/100 plantlings
  Mass, wet, root, + % to control: 38%
  Mass, wet, sprout: 5.13 g/100 plantlings
  Mass, wet, sprout, + % to control: 8%
1·10^−10% solution
  Length, root: 10.8 cm
  Length, root, + % to control: 11%
  Length, sprout: 7.6 cm
  Length, sprout, + % to control: 5.5%
  Mass, dry, root: 0.65 g/100 plantlings
  Mass, dry, root, + % to control: 14%
  Mass, dry, sprout: 0.80 g/100 plantlings
  Mass, dry, sprout, + % to control: 25%
  Mass, wet, root: 3.24 g/100 plantlings
  Mass, wet, root, + % to control: 25%
  Mass, wet, sprout: 4.96 g/100 plantlings
  Mass, wet, sprout, + % to control: 4%
1·10^−11% solution
  Length, root: 10.3 cm
  Length, root, + % to control: 6%
  Length, sprout: 7.3 cm
  Length, sprout, + % to control: 1%
  Mass, dry, root: 0.63 g/100 plantlings
  Mass, dry, root, + % to control: 10.5%
  Mass, dry, sprout: 0.74 g/100 plantlings
  Mass, dry, sprout, + % to control: 16%
  Mass, wet, root: 2.8 g/100 plantlings
  Mass, wet, root, + % to control: 8%
  Mass, wet, sprout: 4.92 g/100 plantlings
  Mass, wet, sprout, + % to control: 3%
1·10^−12% solution
  Length, root: 10.1 cm
  Length, root, + % to control: 4%
  Length, sprout: 7.2 cm
  Length, sprout, + % to control: 0%
  Mass, dry, root: 0.62 g/100 plantlings
  Mass, dry, root, + % to control: 9%
  Mass, dry, sprout: 0.63 g/100 plantlings
  Mass, dry, sprout, + % to control: −1%
  Mass, wet, root: 2.65 g/100 plantlings
  Mass, wet, root, + % to control: 2%
  Mass, wet, sprout: 4.90 g/100 plantlings
  Mass, wet, sprout, + % to control: 3%
[1]
  Length, root: 9.5 cm
  Length, root, + % to control: 9%
  Length, sprout: 6.3 cm
  Length, sprout, + % to control: 2%
  Mass, dry, root: 0.68 g/100 plantlings
  Mass, dry, root, + % to control: 10%
  Mass, dry, sprout: 0.55 g/100 plantlings
  Mass, dry, sprout, + % to control: 8%
  Mass, wet, root: 5.18 g/100 plantlings
  Mass, wet, root, + % to control: 43%
  Mass, wet, sprout: 4.91 g/100 plantlings
  Mass, wet, sprout, + % to control: 24%

## Copper BHMPA Salt [Cu-salt]
1·10^−6% and 1·10^−12% solutions
  effectiveness on germinating power: weren't effective
1·10^−6% solution
  Length, root: 4.6 cm
  Length, root, + % to control: −4%
  Length, sprout: 3.8 cm
  Length, sprout, + % to control: −5%
  Mass, dry, root: 0.41 g/100 plantlings
  Mass, dry, root, + % to control: −2%
  Mass, dry, sprout: 0.35 g/100 plantlings
  Mass, dry, sprout, + % to control: −5%
  Mass, wet, root: 2.61 g/100 plantlings
  Mass, wet, root, + % to control: −7%
  Mass, wet, sprout: 2.70 g/100 plantlings
  Mass, wet, sprout, + % to control: 1.5%
1·10^−7% solution
  Length, root: 4.9 cm
  Length, root, + % to control: 2%
  Length, sprout: 4.0 cm
  Length, sprout, + % to control: 0%
  Mass, dry, root: 0.44 g/100 plantlings
  Mass, dry, root, + % to control: 2%
  Mass, dry, sprout: 0.40 g/100 plantlings
  Mass, dry, sprout, + % to control: 8%
  Mass, wet, root: 3.35 g/100 plantlings
  Mass, wet, root, + % to control: 19%
  Mass, wet, sprout: 3.05 g/100 plantlings
  Mass, wet, sprout, + % to control: 15%
1·10^−8% solution
  Length, root: 5.1 cm
  Length, root, + % to control: 6%
  Length, sprout: 4.1 cm
  Length, sprout, + % to control: 2.5%
  Mass, dry, root: 0.47 g/100 plantlings
  Mass, dry, root, + % to control: 9%
  Mass, dry, sprout: 0.46 g/100 plantlings
  Mass, dry, sprout, + % to control: 24%
  Mass, wet, root: 3.68 g/100 plantlings
  Mass, wet, root, + % to control: 31%
  Mass, wet, sprout: 3.22 g/100 plantlings
  Mass, wet, sprout, + % to control: 21%
1·10^−9% solution
  Length, root: 5.6 cm
  Length, root, + % to control: 17%
  Length, sprout: 4.7 cm
  Length, sprout, + % to control: 17% and 17.5%
  Mass, dry, root: 0.60 g/100 plantlings
  Mass, dry, root, + % to control: 39.5%
  Mass, dry, sprout: 0.50 g/100 plantlings
  Mass, dry, sprout, + % to control: 35%
  Mass, wet, root: 4.13 g/100 plantlings
  Mass, wet, root, + % to control: 47%
  Mass, wet, sprout: 3.61 g/100 plantlings
  Mass, wet, sprout, + % to control: 36%
1·10^−10% solution
  Length, root: 5.3 cm
  Length, root, + % to control: 10%
  Length, sprout: 4.4 cm
  Length, sprout, + % to control: 10%
  Mass, dry, root: 0.49 g/100 plantlings
  Mass, dry, root, + % to control: 14%
  Mass, dry, sprout: 0.48 g/100 plantlings
  Mass, dry, sprout, + % to control: 30%
  Mass, wet, root: 3.75 g/100 plantlings
  Mass, wet, root, + % to control: 33.5%
  Mass, wet, sprout: 3.34 g/100 plantlings
  Mass, wet, sprout, + % to control: 25.5%
1·10^−11% solution
  Length, root: 5.1 cm
  Length, root, + % to control: 6%
  Length, sprout: 4.1 cm
  Length, sprout, + % to control: 2.5%
  Mass, dry, root: 0.46 g/100 plantlings
  Mass, dry, root, + % to control: 7%
  Mass, dry, sprout: 0.46 g/100 plantlings
  Mass, dry, sprout, + % to control: 24%
  Mass, wet, root: 3.44 g/100 plantlings
  Mass, wet, root, + % to control: 11%
  Mass, wet, sprout: 3.20 g/100 plantlings
  Mass, wet, sprout, + % to control: 20%
1·10^−12% solution
  Length, root: 4.8 cm
  Length, root, + % to control: 0%
  Length, sprout: 4.0 cm
  Length, sprout, + % to control: 0%
  Mass, dry, root: 0.41 g/100 plantlings
  Mass, dry, root, + % to control: −2%
  Mass, dry, sprout: 0.42 g/100 plantlings
  Mass, dry, sprout, + % to control: 13.5%
  Mass, wet, root: 3.01 g/100 plantlings
  Mass, wet, root, + % to control: 7%
  Mass, wet, sprout: 2.92 g/100 plantlings
  Mass, wet, sprout, + % to control: 10%
[1]
  Length, root: 10.9 cm
  Length, root, + % to control: 25%
  Length, sprout: 7.2 cm
  Length, sprout, + % to control: 16%
  Mass, dry, root: 0.67 g/100 plantlings
  Mass, dry, root, + % to control: 8%
  Mass, dry, sprout: 0.59 g/100 plantlings
  Mass, dry, sprout, + % to control: 16%
  Mass, wet, root: 5.45 g/100 plantlings
  Mass, wet, root, + % to control: 51%
  Mass, wet, sprout: 5.00 g/100 plantlings
  Mass, wet, sprout, + % to control: 26%
